Test results published in US9102684B2, “Indolinone analogues” (Boehringer Ingelheim International GmbH, priority 2013, dated 2015).

Target: T1, BRD4 (Homo sapiens, UniProt O60885)
T1 construct: fused on or other part: GST tag, fused on for capture by the AlphaLISA Glutathione Acceptor Beads
Test: BRD4-H4 tetraacetylated Peptide Inhibition AlphaScreen
Type: binding
Details: GST-BRD4-BD1 (aa 44-168) or GST-BRD4-BD2 (aa 333-460) with biotinylated Acetyl-Histone H4 peptide; table does not state which bromodomain
Procedure: Biological Methods BRD4-H4 tetraacetylated Peptide Inhibition AlphaScreen
Compounds are diluted in serial dilution 1:5 in assay buffer from 10 mM stock in DMSO (100 μM start concentration) in white OptiPlate-384 (PerkinElmer). A mix consisting of 15 nM GST-BRD4-BD1 protein (aa 44-168) or 150 nM GST-BRD4-BD2 (aa 333-460) and 15 nM biotinylated Acetyl-Histone H4 (LysS, 8, 12, 16) peptide is prepared in assay buffer (50 mM HEPES pH=7.4; 25 mM NaCl; 0.05% Tween 20; 0.1% bovine serum albumin (BSA); 10 mM dithiothreitol (DTT)). 6 μl of the mix is added to the compound dilutions. Subsequently, 6 μl of premixed AlphaLISA Glutathione Acceptor Beads and AlphaScreen Streptavidin Donor Beads from PerkinElmer (in assay buffer at a concentration of 10 μg/ml each) are added and the samples are incubated for 30 min at RT in the dark (shaking 300 rpm). Afterwards, the signal is measured in a PerkinElmer Envision HTS
Multilabel Reader using the AlphaScreen protocol from PerkinElmer. Each plate contains negative controls where biotinylated Acetyl-Histone H4 peptide and GST-BRD4-BD1 or GST-BRD4-BD2 are left out and replaced by assay buffer. Negative control values are entered as low basis value when using the software GraphPad Prism for calculations. Furthermore, a positive control (probe molecule JQ1+ with protein/peptide mix) is pipetted. Determination of IC50 values are carried out using GraphPad Prism 3.03 software (or updates thereof).

| Structure (SMILES) | IC50 [µM] |
| --- | --- |
| Cc1noc(C)c1-c1ccc2c(c1)C(c1ccccc1)N(CCCN(C)C)C2=O (centres unmarked) [Example 3, 2-(3-Dimethylamino-propyl)-5-(3,5-dimethyl-isoxazol-4-yl)-3-phenyl-2,3-dihydro-isoindol-1-one] | 0.043 |
| Cc1cc(-c2c(C)noc2C)cc2c1C(=O)N(C)C2c1ccccc1 (centres unmarked) [Example 11, 5-(3,5-Dimethyl-isoxazol-4-yl)-2,7-dimethyl-3-phenyl-2,3-dihydro-isoindol-1-one] | 2.49 |
| Cc1noc(C)c1-c1ccc2c(c1)C(c1ccccc1)OC2=O (centres unmarked) [Example 13, 5-(3,5-Dimethyl-isoxazol-4-yl)-3-phenyl-3H-isobenzofuran-1-one] | 0.193 |
| Cc1noc(C)c1-c1ccc2c(c1)C1(c3ccccc3)OCCN1C2=O (centres unmarked) [Example 14, 8-(3,5-Dimethyl-isoxazol-4-yl)-9b-phenyl-2,3-dihydro-9bH-oxazolo[2,3-a]isoindol-5-one] | 0.072 |
| COc1c(-c2c(C)noc2C)ccc2c1C(c1ccccc1)OC2=O (centres unmarked) [Example 16, 5-(3,5-Dimethyl-isoxazol-4-yl)-4-methoxy-3-phenyl-3,1-isobenzofuran-1-one] | 0.35 |
| Cc1noc(C)c1-c1ccc2c(c1C)C(c1ccccc1)OC2=O (centres unmarked) [Example 17, 5-(3,5-Dimethyl-isoxazol-4-yl)-4-methyl-3-phenyl-3H-isobenzofuran-1-one] | 1.08 |
| Cc1noc(C)c1-c1ccc2c(c1)C(C)(c1ccccc1)C(=O)N2 (centres unmarked) [Example 18, 5-(3,5-Dimethyl-isoxazol-4-yl)-3-methyl-3-phenyl-1,3-dihydro-indol-2-one] | 0.054 |
| Cc1noc(C)c1-c1ccc2c(c1)C(C)(c1ccccc1)C(=O)N2C (centres unmarked) [Example 19, 5-(3,5-Dimethyl-isoxazol-4-yl)-1,3-dimethyl-3-phenyl-1,3-dihydro-indol-2-one] | 0.275 |
| Cc1noc(C)c1-c1ccc2c(c1)C(C)(c1ccccc1)C(=O)N2c1cccnc1 (centres unmarked) [Example 20, 5-(3,5-Dimethyl-isoxazol-4-yl)-3-methyl-3-phenyl-1-pyridin-3-yl-1,3-dihydro-indol-2-one] | 0.242 |
| Cc1noc(C)c1-c1ccc2c(c1)C(O)(c1ccccc1)C(=O)N2 (centres unmarked) [Example 21, 5-(3,5-Dimethyl-isoxazol-4-yl)-3-hydroxy-3-phenyl-1,3-dihydro-indol-2-one] | 0.259 |
| Cc1noc(C)c1-c1ccc2c(c1)[C@](O)(c1ccccc1)C(=O)N2 [Example 22, 5-(3,5-Dimethyl-isoxazol-4-yl)-3-hydroxy-3-phenyl-1,3-dihydro-indol-2-one] | 0.048 |
| Cc1noc(C)c1-c1ccc2c(c1)C(O)(c1ccccc1CN1CCOCC1)C(=O)N2 (centres unmarked) [Example 23, 5-(3,5-Dimethyl-isoxazol-4-yl)-3-hydroxy-3-(2-morpholin-4-ylmethyl-phenyl)-1,3-dihydro-indol-2-one] | 0.176 |
| Cc1noc(C)c1-c1ccc2c(c1)[C@](O)(c1ccccc1CN1CCOCC1)C(=O)N2 [Example 24, 5-(3,5-Dimethyl-isoxazol-4-yl)-3-hydroxy-3-(2-morpholin-4-ylmethyl-phenyl)-1,3-dihydro-indol-2-one] | 0.041 |
| Cc1noc(C)c1-c1ccc2c(c1)C(O)(c1ccc(Cl)cc1)C(=O)N2 (centres unmarked) [Example 25, 3-(4-Chloro-phenyl)-5-(3,5-dimethyl-isoxazol-4-yl)-3-hydroxy-1,3-dihydro-indol-2-one] | 0.295 |
| Cc1noc(C)c1-c1ccc2c(c1)C(O)(c1cccs1)C(=O)N2 (centres unmarked) [Example 26, 5-(3,5-Dimethyl-isoxazol-4-yl)-3-hydroxy-3-thiophen-2-yl-1,3-dihydro-indol-2-one] | 0.32 |
| Cc1noc(C)c1-c1ccc2c(c1)C(O)(C1CCCC1)C(=O)N2 (centres unmarked) [Example 27, 3-Cyclopentyl-5-(3,5-dimethyl-isoxazol-4-yl)-3-hydroxy-1,3-dihydro-indol-2-one] | 0.698 |
| Cc1noc(C)c1-c1ccc2c(c1)C(O)(c1ccc(F)c(F)c1)C(=O)N2 (centres unmarked) [Example 28, 3-(3,4-Difluoro-phenyl)-5-(3,5-dimethyl-isoxazol-4-yl)-3-hydroxy-1,3-dihydro-indol-2-one] | 0.203 |
| Cc1noc(C)c1-c1ccc2c(c1)C(O)(c1ccc3c(c1)OCO3)C(=O)N2 (centres unmarked) [Example 29, 3-Benzo[1,3]dioxol-5-yl-5-(3,5-dimethyl-isoxazol-4-yl)-3-hydroxy-1,3-dihydro-indol-2-one] | 0.541 |
| Cc1noc(C)c1-c1ccc2c(c1)C(O)(C1CCCCC1)C(=O)N2 (centres unmarked) [Example 30, 3-cyclohexyl-5-(3,5-dimethyl-isoxazol-4-yl)-3-hydroxy-1,3-dihydro-indol-2-one] | 0.196 |
| Cc1noc(C)c1-c1ccc2c(c1)C(O)(c1cccnc1)C(=O)N2 (centres unmarked) [Example 31, 5-(3,5-Dimethyl-isoxazol-4-yl)-3-hydroxy-3-pyridin-3-yl-1,3-dihydro-indol-2-one] | 0.395 |
| Cc1noc(C)c1-c1ccc2c(c1)C(O)(c1ccccn1)C(=O)N2 (centres unmarked) [Example 32, 5-(3,5-Dimethyl-isoxazol-4-yl)-3-hydroxy-3-pyridin-2-yl-1,3-dihydro-indol-2-one] | 0.332 |
| Cc1ccccc1C1(O)C(=O)Nc2ccc(-c3c(C)noc3C)cc21 (centres unmarked) [Example 33, 5-(3,5-Dimethyl-isoxazol-4-yl)-3-hydroxy-3-o-tolyl-1,3-dihydro-indol-2-one] | 1.06 |
| Cc1noc(C)c1-c1ccc2c(c1)C(O)(C1CCOCC1)C(=O)N2 (centres unmarked) [Example 34, 5-(3,5-Dimethyl-isoxazol-4-yl)-3-hydroxy-3-(tetrahydro-pyran-4-yl)-1,3-dihydro-indol-2-one] | 1.57 |
| Cc1cncc(C2(O)C(=O)Nc3ccc(-c4c(C)noc4C)cc32)c1 (centres unmarked) [Example 35, 5-(3,5-Dimethyl-isoxazol-4-yl)-3-hydroxy-3-(5-methyl-pyridin-3-yl)-1,3-dihydro-indol-2-one] | 1.04 |

Results, then the molecule that gave them:

| IC50 [µM] | Structure (SMILES) |
| --- | --- |
| 0.38 | COc1cc(F)cc(C2c3cc(-c4c(C)noc4C)ccc3C(=O)N2C)c1 (centres unmarked) [Example 1, 5-(3,5-Dimethyl-isoxazol-4-yl)-3-(3-fluoro-5-methoxy-phenyl)-2-methyl-2,3-dihydro-isoindol-1-one] |
| 0.057 | Cc1noc(C)c1-c1ccc2c(c1)C(c1ccccc1)N(C1CCN(C)CC1)C2=O (centres unmarked) [Example 2, 5-(3,5-Dimethyl-isoxazol-4-yl)-2-(1-methyl-piperidin-4-yl)-3-phenyl-2,3-dihydro-isoindol-1-one] |
| 0.065 | Cc1noc(C)c1-c1ccc2c(c1)C(c1ccccc1)N(CCN(C)C)C2=O (centres unmarked) [Example 4, 2-(2-Dimethylamino-ethyl)-5-(3,5-dimethyl-isoxazol-4-yl)-3-phenyl-2,3-dihydro-isoindol-1-one] |
| 0.229 | Cc1noc(C)c1-c1ccc2c(c1)C(c1cc(F)cc(F)c1)N(C)C2=O (centres unmarked) [Example 5, 3-(3,5-Difluoro-phenyl)-5-(3,5-dimethyl-isoxazol-4-yl)-2-methyl-2,3-dihydro-isoindol-1-one] |
| 0.043 | Cc1noc(C)c1-c1ccc2c(c1)C(C1CCCCC1)N(C)C2=O (centres unmarked) [Example 6, 3-Cyclohexyl-5-(3,5-dimethyl-isoxazol-4-yl)-2-methyl-2,3-dihydro-isoindol-1-one] |
| 1.09 | Cc1noc(C)c1-c1ccc2c(c1)C(C1CCC3(CCC3)CC1)N(C)C2=O (centres unmarked) [Example 7, 5-(3,5-Dimethyl-isoxazol-4-yl)-2-methyl-3-spiro[3.5]non-7-yl-2,3-dihydro-isoindol-1-one] |
| 0.055 | Cc1noc(C)c1-c1ccc2c(c1)C(c1ccccc1)N(C)C2=O (centres unmarked) [Example 8, 5-(3,5-Dimethyl-isoxazol-4-yl)-2-methyl-3-phenyl-2,3-dihydro-isoindol-1-one] |
| 0.014 | Cc1noc(C)c1-c1ccc2c(c1)[C@H](c1ccccc1)N(C)C2=O [Example 9, (S)-5-(3,5-Dimethyl-isoxazol-4-yl)-2-methyl-3-phenyl-2,3-dihydro-isoindol-1-one] |
| 0.038 | Cc1noc(C)c1-c1ccc2c(c1)C(C)(c1ccccc1)N(C)C2=O (centres unmarked) [Example 10, 5-(3,5-Dimethyl-isoxazol-4-yl)-2,3-dimethyl-3-phenyl-2,3-dihydro-isoindol-1-one] |
| 0.075 | Cc1noc(C)c1-c1ccc2c(c1)C(c1ccccc1)N(C(C)C)C2=O (centres unmarked) [Example 12, 5-(3,5-Dimethyl-isoxazol-4-yl)-2-isopropyl-3-phenyl-2,3-dihydro-isoindol-1-one] |
| 0.036 | Cc1noc(C)c1-c1ccc2c(c1)C1(c3ccccc3)OCCCN1C2=O (centres unmarked) [Example 15, 9-(3,5-Dimethyl-isoxazol-4-yl)-10b-phenyl-3,4-dihydro-2H,10bH-[1,3]oxazino[2,3-a]isoindol-6-one] |
